Experimental findings from patent US11578074B2, “Nitrogenous heterocyclic compound, preparation method, intermediate, composition, and application” (SHANGHAI PHARMACEUTICALS HOLDING CO., LTD., priority 2017, dated 2023) are described below.

The target of one data set is T1, ErbB2 kinase (Homo sapiens, UniProt P04626).
T1 construct: The final concentration of ErbB2 kinase was 0.06 ng/μL
Description: EGFR/ErbB2 enzymatic experiment (HTRF kinEASE-TK), ErbB2. The class given is biochemical. As to conditions: ErbB2 kinase 0.06 ng/μL, ATP 4 μM; read-out: Kinase IC50 (nM) in vitro ErbB2. On the procedure:
(§1) EGFR/ErbB2 Enzymatic Experiment
(§2) Firstly, 1× reaction buffer required for the kinase was prepared, then 5× Enzymatic buffer (HEPES 20 mM pH 7.0, NaN3 0.1%, BSA 0.05%, sodium orthovanadate 0.5 mM) was diluted in HTRF kinEASE-TK kit by 1 time with deionized water, and 50 nM Supplement Enzymatic buffer (SEB REAGENT), 1 mM MnCl2, 5 mM MfCl2, 1 mM DTT were added. Secondly, 5× compound was prepared, and 10 mM test compound storage solution was diluted in multiple steps with DMSO in a 96-well compound plate to prepare 100× compound as an initial concentration, which was then used as the first concentration to carry out a 3-fold gradient dilution with DMSO to obtain a total of 10 concentrations. Then 1 μL of gradient diluent was added to 19 μL of 1× reaction buffer to prepare 5× compound for later use. Then 2 μL of 5× compound was transferred from the 96-well plate into a 384-well plate. To the compound-free control wells was added 2 μL of the following liquid: 19 μL of 1× reaction buffer with addition of 1 μL of DMSO. To the blank control well was added 2 μL of 250 mM EDTA. […] In the fourth step of reaction termination, HTRF Detection buffer was used to prepare a mixture of 2×TK Antibody-EU (K) and Sa-XL665, and the amount of TK Antibody-EU (K) was 5 μL per well. After the enzyme reaction was carried out for 30 minutes, 10 μL of the above liquid was added to a 384-well plate, and the reaction was carried out at room temperature for 1 hour. […] RFU665 nM and RFU620 nM were measured, and RFU665 nM/RFU620 nM×10000 was used as final data for analysis.
For orientation: Time-resolved FRET reads energy transfer from a long-lived donor to a nearby acceptor.

The next data set concerns the target EGFR kinase (Homo sapiens, UniProt P00533). Nature of the data set: EGFR/ErbB2 enzymatic experiment (HTRF kinEASE-TK), EGFR. The class given is biochemical. The conditions noted are these: EGFR kinase 0.06 units/μL, ATP 1.65 μM; read-out: Kinase IC50 (nM) in vitro EGFR. On the procedure: as §1, §2
Data set [1] has as its system N87 (human gastric cancer cell NCI-N87). Nature of the data set: In vitro proliferation inhibition assay of cell lines (CellTiter-Glo), N87. The class given is cell-based. The conditions noted are these: N87 cells, 72 hours. On the procedure: (§3) In Vitro Proliferation Inhibition Assay of Cell Lines
(§4) 1. Cell culture and inoculation: on the first day of the experiment, normal cultured cells were taken, and in the exponential growth state, after digestion and dispersion, the cell density was then adjusted to 8.8×10^4 cells/mL for BT-474, and 6.6×10^4 cells/mL for N87, and 90 μL of which were inoculated to each well of a 96-well cell culture plate; after the inoculation was completed, the microplate was cultured under the conditions of 37° C. and 5% CO2 overnight. 2. Dosing to the cells: on the second day of the experiment, the microplate was taken out from the incubator, and 10 μL of 10× compound was added to each well of the microplate, setting 2 duplicate wells for each drug concentration and 9 dosing concentrations for each compound. According to different cell lines, the initial concentration of each compound was different. Upon completion of addition, the microplate was placed under the conditions of 37° C. and 5% CO2 for 72 hours. 3. Data acquisition: the microplate was taken out from the incubator and was allowed to equilibrate at room temperature for 30 minutes. 100 μL of CellTiter-Glo® Luminescent Cell Viability Assay reaction solution which had been equilibrated at room temperature was added to each well, and the reaction solution was shaken at 1300 rpm for 2 minutes at room temperature. After that, the microplate was placed in HERAEUS Multifuge X1R centrifuge, centrifuged at 2000 rpm for 1 minute, and allowed to equilibrate at room temperature for 10 minutes. The fluorescence signal value was measured on EnVision™.
On the technique in general: ATP-based viability assays read luminescence as a measure of living cells.

Data set [2] has as its system BT-474 (human breast cancer cell). Description: In vitro proliferation inhibition assay of cell lines (CellTiter-Glo), BT-474. The class given is cell-based. As to conditions: BT-474 cells, 72 hours. On the procedure: as §3
as §4, with “Cell culture and inoculation: on the first day of the experiment, normal cultured cells were taken, and in the exponential growth state, after digestion and dispersion, the cell density was then adjusted to 8.8×10^4 cells/mL for BT-474, and 6.6×10^4 cells/mL for N87, and 90 μL of which were inoculated to each well of a 96-well cell culture plate; after the inoculation was completed, the microplate was cultured under the conditions of 37° C. and 5% CO2 overnight.” left out

For a further data set, the target named is T2, CYP3A4 (Homo sapiens, UniProt P08684).
T2 construct: A system of 100 μL human liver microsomes; from tissue; host or cells: human liver microsomes
T2 sequence (P08684 whole entry): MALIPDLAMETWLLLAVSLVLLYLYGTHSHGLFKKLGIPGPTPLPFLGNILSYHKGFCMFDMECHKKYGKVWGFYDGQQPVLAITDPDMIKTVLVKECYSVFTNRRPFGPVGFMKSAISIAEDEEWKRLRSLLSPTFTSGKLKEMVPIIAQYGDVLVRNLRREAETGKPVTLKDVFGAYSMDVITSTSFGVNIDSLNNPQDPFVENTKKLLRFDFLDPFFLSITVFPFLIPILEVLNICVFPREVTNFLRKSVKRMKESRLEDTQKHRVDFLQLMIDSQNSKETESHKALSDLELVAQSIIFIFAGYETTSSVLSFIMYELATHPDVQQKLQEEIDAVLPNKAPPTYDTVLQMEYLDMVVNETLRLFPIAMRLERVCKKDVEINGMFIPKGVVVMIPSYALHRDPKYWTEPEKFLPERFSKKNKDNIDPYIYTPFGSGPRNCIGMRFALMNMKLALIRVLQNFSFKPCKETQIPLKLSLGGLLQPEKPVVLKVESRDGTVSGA
Nature of the data set: Direct inhibition (DI) of CYP3A4 in human liver microsomes. The class given is in vitro ADME. The conditions noted are these: human liver microsomes 0.2 mg/mL, 10 μM compound. On the procedure: (§5) Study on Direct Inhibition (DI) of CYP3A4, CYP2D6, CYP2C9, CYP2C19, CYP1A2
(§6) A system of 100 μL human liver microsomes (final concentration: 0.2 mg/mL) was used for direct inhibition under warm incubation. The system contained NADPH (final concentration: 1 mM), 10 μM compound, a positive inhibitor cocktail (Ketoconazole 10 μM, Quinidine: 10 μM, Sulfaphenazole: 100 μM, Naphthoflavone: 10 μM, Tranylcypromene 1000 μM), a negative control 10 μM DMSO and mixed probe substrates (Midazolam 10 μM, Testosterone 100 μM, Dextromethophan 10 μM, Diclofenac 20 μM, Phenetin 100 μM, Mephenytoin 100 μM). The reaction was terminated after incubation for 20 minutes. The relative activity of the enzymes was calculated by measuring the relative production of metabolites.
(In general: Liver microsomes are a subcellular fraction often used to study metabolism.)

Another data set concerns the target T3, CYP2D6 (Homo sapiens, UniProt P10635).
T3 construct: A system of 100 μL human liver microsomes; from tissue; host or cells: human liver microsomes
Description: Direct inhibition (DI) of CYP2D6 in human liver microsomes. The class given is in vitro ADME. As to conditions: probe Dextromethorphan, human liver microsomes 0.2 mg/mL, 10 μM compound, read-out: Direct inhibition (DI) 2D6 (Dextromethorphan). On the procedure: as §5, §6

Another data set concerns the target T4, CYP2C9 (Homo sapiens, UniProt P11712).
T4 construct: A system of 100 μL human liver microsomes; from tissue; host or cells: human liver microsomes
Description: Direct inhibition (DI) of CYP2C9 in human liver microsomes. The conditions noted are these: probe Diclofenac, human liver microsomes 0.2 mg/mL, 10 μM compound, read-out: Direct inhibition (DI) 2C9 (Diclofenac). The class given is in vitro ADME. On the procedure: as §5, §6

For the next data set, the target named is T5, CYP1A2 (Homo sapiens, UniProt P05177).
T5 construct: A system of 100 μL human liver microsomes; from tissue; host or cells: human liver microsomes
T5 sequence (P05177 1-516): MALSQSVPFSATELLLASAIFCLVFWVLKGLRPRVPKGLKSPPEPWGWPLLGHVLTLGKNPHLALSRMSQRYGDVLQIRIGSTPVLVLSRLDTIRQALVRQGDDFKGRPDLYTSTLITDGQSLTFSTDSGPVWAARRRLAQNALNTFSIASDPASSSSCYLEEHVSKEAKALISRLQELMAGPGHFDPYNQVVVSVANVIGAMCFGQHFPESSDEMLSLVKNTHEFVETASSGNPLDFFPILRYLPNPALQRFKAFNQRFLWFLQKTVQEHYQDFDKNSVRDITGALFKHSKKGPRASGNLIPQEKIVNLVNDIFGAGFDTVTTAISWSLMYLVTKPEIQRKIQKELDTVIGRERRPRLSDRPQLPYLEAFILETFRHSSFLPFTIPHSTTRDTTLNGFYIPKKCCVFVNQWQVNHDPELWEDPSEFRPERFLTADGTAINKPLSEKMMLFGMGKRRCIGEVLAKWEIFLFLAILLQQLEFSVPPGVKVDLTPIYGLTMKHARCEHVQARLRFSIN
Nature of the data set: Direct inhibition (DI) of CYP1A2 in human liver microsomes. The class given is in vitro ADME. The conditions noted are these: probe Phenacetin, human liver microsomes 0.2 mg/mL, 10 μM compound, read-out: Direct inhibition (DI) 1A2 (Phenacetin). On the procedure:
as §5, §6

The target of another data set is T6, CYP2C19 (Homo sapiens, UniProt P33261).
T6 construct: A system of 100 μL human liver microsomes; from tissue; host or cells: human liver microsomes
T6 sequence (P33261 whole entry): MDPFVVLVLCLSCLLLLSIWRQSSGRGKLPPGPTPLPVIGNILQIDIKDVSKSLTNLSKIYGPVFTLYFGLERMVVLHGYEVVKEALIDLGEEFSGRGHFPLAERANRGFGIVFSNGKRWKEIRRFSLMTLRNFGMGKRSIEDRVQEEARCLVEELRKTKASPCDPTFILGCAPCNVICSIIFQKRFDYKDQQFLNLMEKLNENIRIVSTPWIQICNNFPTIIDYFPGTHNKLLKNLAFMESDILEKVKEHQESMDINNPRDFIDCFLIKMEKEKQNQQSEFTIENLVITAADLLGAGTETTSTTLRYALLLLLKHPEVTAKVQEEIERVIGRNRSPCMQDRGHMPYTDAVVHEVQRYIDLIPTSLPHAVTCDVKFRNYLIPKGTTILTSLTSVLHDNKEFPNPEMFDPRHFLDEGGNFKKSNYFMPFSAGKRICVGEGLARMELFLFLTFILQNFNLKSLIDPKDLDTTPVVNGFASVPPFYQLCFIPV
Description: Direct inhibition (DI) of CYP2C19 in human liver microsomes. The class given is in vitro ADME. As to conditions: probe Mephenytoin, human liver microsomes 0.2 mg/mL, 10 μM compound, read-out: Direct inhibition (DI) 2C19 (Mephenytoin). On the procedure:
as §5, §6

Setting [3] is: probe Midazolam, read-out: Direct inhibition (DI) 3A4 (Midazolam).
The mark [4] stands for this setting: probe Testosterone, read-out: Direct inhibition (DI) 3A4 (testosterone).

Where two headings read alike, the source gives them in different places.

T3 sequence (P10635 whole entry): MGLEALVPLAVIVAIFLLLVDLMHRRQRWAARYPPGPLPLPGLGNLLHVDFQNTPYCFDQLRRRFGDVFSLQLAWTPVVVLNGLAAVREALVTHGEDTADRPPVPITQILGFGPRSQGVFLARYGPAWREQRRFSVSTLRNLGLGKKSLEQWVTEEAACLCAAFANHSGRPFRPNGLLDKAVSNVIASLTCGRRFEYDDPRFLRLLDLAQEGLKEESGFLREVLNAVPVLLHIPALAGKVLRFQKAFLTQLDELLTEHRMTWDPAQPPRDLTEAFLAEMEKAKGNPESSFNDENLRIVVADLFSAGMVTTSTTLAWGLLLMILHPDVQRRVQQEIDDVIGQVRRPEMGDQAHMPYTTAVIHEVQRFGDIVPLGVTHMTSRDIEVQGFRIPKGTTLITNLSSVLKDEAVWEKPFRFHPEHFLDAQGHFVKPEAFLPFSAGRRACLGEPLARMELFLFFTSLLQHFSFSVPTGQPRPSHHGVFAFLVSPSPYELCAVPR
Sequence of EGFR kinase (P00533 25-1210): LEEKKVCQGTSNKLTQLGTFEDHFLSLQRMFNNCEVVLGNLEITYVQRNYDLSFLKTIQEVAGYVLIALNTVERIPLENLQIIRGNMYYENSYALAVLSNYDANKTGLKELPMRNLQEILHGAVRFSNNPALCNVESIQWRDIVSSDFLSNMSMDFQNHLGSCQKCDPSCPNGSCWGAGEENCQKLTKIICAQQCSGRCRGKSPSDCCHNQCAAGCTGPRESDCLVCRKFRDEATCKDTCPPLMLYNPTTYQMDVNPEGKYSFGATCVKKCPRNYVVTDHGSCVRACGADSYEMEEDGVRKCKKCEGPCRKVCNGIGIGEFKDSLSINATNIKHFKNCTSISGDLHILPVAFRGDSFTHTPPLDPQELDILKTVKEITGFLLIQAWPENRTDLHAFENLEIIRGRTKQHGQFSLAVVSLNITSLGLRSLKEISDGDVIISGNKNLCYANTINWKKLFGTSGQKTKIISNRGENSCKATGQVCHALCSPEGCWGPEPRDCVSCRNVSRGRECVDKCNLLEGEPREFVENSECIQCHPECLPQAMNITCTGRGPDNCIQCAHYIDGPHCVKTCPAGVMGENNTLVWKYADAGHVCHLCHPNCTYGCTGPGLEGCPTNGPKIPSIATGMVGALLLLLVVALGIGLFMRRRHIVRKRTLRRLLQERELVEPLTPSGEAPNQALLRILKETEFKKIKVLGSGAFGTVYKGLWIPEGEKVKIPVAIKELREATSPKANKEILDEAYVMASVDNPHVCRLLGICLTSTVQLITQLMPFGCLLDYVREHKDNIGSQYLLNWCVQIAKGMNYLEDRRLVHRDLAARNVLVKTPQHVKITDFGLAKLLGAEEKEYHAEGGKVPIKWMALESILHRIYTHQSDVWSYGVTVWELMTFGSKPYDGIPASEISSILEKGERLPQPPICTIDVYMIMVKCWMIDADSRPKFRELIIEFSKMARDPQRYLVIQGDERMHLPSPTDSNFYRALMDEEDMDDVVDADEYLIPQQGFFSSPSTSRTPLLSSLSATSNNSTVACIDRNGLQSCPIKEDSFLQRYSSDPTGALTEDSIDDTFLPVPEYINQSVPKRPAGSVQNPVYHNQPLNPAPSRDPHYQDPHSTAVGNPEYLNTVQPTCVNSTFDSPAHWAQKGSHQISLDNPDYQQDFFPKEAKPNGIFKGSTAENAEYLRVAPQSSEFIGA
T1 sequence (P04626 23-1255): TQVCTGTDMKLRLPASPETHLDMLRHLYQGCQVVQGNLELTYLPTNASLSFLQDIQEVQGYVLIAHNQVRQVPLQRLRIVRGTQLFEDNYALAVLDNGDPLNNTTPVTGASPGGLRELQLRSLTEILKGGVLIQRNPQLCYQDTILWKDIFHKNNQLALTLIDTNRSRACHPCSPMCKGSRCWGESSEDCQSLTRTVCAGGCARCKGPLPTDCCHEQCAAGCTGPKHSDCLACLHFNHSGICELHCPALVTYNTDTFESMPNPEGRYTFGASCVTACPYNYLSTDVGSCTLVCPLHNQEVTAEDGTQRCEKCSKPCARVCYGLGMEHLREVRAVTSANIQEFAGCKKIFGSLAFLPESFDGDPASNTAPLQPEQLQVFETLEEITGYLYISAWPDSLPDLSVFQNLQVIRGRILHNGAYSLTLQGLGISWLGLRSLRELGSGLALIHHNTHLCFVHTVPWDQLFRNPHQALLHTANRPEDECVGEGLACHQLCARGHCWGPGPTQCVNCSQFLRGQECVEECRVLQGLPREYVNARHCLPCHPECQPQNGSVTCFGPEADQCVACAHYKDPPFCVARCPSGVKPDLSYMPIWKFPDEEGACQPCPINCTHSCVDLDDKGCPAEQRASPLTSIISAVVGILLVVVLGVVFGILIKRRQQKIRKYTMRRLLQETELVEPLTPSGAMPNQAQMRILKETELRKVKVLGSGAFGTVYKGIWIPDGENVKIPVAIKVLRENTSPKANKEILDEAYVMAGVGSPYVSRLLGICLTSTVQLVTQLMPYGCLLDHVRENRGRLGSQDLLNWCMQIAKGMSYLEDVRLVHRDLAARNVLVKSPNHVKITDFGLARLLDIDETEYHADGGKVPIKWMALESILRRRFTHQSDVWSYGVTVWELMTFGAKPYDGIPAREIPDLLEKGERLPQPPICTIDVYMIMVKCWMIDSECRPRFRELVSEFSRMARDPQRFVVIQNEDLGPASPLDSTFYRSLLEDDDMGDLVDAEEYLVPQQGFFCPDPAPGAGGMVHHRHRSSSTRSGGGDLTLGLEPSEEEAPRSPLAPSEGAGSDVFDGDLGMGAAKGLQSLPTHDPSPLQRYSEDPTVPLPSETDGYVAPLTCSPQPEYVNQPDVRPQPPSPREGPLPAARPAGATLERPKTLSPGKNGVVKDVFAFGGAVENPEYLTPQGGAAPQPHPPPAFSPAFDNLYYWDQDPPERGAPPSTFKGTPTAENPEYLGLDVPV
T4 sequence (P11712 whole entry): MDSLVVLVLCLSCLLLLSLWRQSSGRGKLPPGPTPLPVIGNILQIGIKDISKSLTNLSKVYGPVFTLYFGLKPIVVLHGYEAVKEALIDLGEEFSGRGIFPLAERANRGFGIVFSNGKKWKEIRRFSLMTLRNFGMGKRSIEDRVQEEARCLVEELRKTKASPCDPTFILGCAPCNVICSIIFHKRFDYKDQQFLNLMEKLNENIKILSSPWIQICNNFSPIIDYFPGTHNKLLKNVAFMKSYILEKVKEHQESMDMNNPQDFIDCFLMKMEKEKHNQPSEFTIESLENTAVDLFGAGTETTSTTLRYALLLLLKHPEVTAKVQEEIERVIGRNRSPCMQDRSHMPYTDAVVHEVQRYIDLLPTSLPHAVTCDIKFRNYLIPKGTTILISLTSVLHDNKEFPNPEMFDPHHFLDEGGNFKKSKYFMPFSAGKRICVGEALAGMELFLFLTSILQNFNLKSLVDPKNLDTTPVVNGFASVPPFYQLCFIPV

As for `Cc1cc(Nc2ncnc3ccc(NC(=O)/C=C/[C@H]4CCCN4C)cc23)ccc1Oc1ccn2ccnc2c1` [Final product of Embodiment 11, (R,E)-N-(4-((4-(imidazo[1,2-a]pyridin-7-yloxy)-3-methylphenyl)amino)quinazolin-6-yl)-3-(1-methylpyrrolidin-2-yl)acrylamide], the IC50 on ErbB2 kinase came out at 0.73 nM; at EGFR kinase, 1.02 nM; in [1], 3.18 nM; in [2] it was 3.27 nM. The inhibition at 20 min, 10 µM amounted to 5% on CYP3A4 (setting [3]); 16% on CYP3A4 (setting [4]); 87% on CYP2D6; 9% on CYP2C9; 9% on CYP1A2; 26% on CYP2C19.

For `C=CC(=O)N1CCC(c2ccc3ncnc(Nc4ccc(Oc5cc6nncn6cn5)c(C)c4)c3c2)CC1` [Final product of Embodiment 4, 1-(4-(4-((4-([1,2,4]triazolo[4,3-c]pyrimidin-7-yloxy)-3-methylphenyl)amino)quinazolin-6-yl)piperidin-1-yl)propan-2-en-1-one], the IC50 at ErbB2 kinase was found to be 6.09 nM; at EGFR kinase it was 168 nM; in data set [1], 5.75 nM; in [2], 4.79 nM. Moreover, the inhibition at 20 min, 10 µM at CYP3A4 (setting [3]) is 49%; at CYP3A4 (setting [4]), 56%; on CYP2D6, 7%; on CYP2C9 it was 48%; at CYP1A2, less than 0%; at CYP2C19 it was 23%.

Consider `Cc1cc(Nc2ncnc3ccc(NC(=O)/C=C/[C@H]4CCCN4C)cc23)ccc1Oc1ccn2ncnc2n1` [Final product of Embodiment 12, (R,E)-N-(4-((4-([1,2,4]triazolo[1,5-a]pyrimidin-5-yloxy)-3-methylphenyl)amino)quinazolin-6-yl)-3-(1-methylpyrrolidin-2-yl)-acrylamide], for which the IC50 on ErbB2 kinase came to 0.99 nM; on EGFR kinase it was 0.42 nM; in data set [1], 4.19 nM; in [2], 4.01 nM. Besides, the inhibition at 20 min, 10 µM at CYP3A4 (setting [3]) was less than 0%; on CYP3A4 (setting [4]), 4%; on CYP2D6, 77%; at CYP2C9, 5%; on CYP1A2 it was 2%; on CYP2C19, 13%.

In the case of `Cc1cc(Nc2ncnc3ccc(NC(=O)/C(F)=C\[C@H]4CCCN4C)cc23)ccc1Oc1ccn2ncnc2c1` [Final product of Embodiment 40], the inhibition at 20 min, 10 µM at CYP3A4 (setting [3]) is 3%; on CYP3A4 (setting [4]) it was 9%; at CYP2D6, 16%; on CYP2C9, less than 0%; at CYP1A2, less than 0%; on CYP2C19 it was 18%.

In the case of `Cc1cc(Nc2ncnc3ccc(NC(=O)/C=C/[C@H]4CCCN4)cc23)ccc1Oc1ccn2ncnc2c1` [Final product of Embodiment 19, (R,E)-N-(4-((4-([1,2,4]triazolo[1,5-a]pyridin-7-yloxy)-3-methylphenyl)amino)quinazolin-6-yl)-3-(pyrrolidin-2-yl)acrylamide], the half-maximal inhibitory concentration (IC50) at ErbB2 kinase was determined as 0.716 nM; at EGFR kinase it was 3.97 nM; in data set [1] it was 28.4 nM; in data set [2] it was 26 nM. Also, the inhibition at 20 min, 10 µM was 16% at CYP3A4 (setting [3]); 38% at CYP3A4 (setting [4]); 60% at CYP2D6; less than 0% on CYP2C9; 7% at CYP1A2; less than 0% at CYP2C19.

Take `CCOc1cc2ncc(C#N)c(Nc3ccc(Oc4cc5nncn5cn4)c(C)c3)c2cc1NC(=O)/C=C/[C@H]1CCCN1C` [Final product of Embodiment 33]: the IC50 stood at 3.56 nM at ErbB2 kinase, 2.14 nM on EGFR kinase, 3.2 nM in data set [1] and 4.2 nM in data set [2]. Besides, the inhibition at 20 min, 10 µM at CYP3A4 (setting [3]) was 10%; at CYP3A4 (setting [4]) it was 17%; at CYP2D6 it was 3%; on CYP2C9, 17%; at CYP1A2, less than 0%; on CYP2C19, 49%.

As a reminder, the IC50 is the concentration that inhibits the measured activity by half. In general, inhibition refers to how much of the control response was suppressed.
